According to patent US20250144054A1, “SMALL MOLECULE STAT3 INHIBITOR FOR TREATING TRIPLE NEGATIVE BREAST CANCER” (UNIVERSITY OF MARYLAND, BALTIMORE, priority 2022, published 2025):
“And” between values parts separate entries of the source, which are not always exact repeats. Equal values may be shown once.

Test system: STAT3
Test: Western blot of P-STAT3 (Y705), STAT3, Cyclin D1, Cleaved Caspase-3 in MDA-MB-231 cells
Format: cell-based, human
Conditions: MDA-MB-231, overnight
Protocol: (A) MDA-MB-231, SUM159, and 4T1 cell lines were treated with DMSO or LLL12B overnight and the expression levels of P-STAT3 (Y705), STAT3, Cyclin D1, and Cleaved Caspase-3 were analyzed by Western blot. GAPDH served as a protein loading control. (B) MDA-MB-231 cells were treated with DMSO or C188-9 overnight and the expression levels of P-STAT3 (Y705), STAT3, Cyclin D1, and Cleaved Caspase-3 were analyzed by Western blot. (C) MDA-MB-231, SUM159, and 4T1 cells were seeded in a 96-well plate and treated with DMSO or LLL12B for 5 hours and a Caspase-3/7 Fluorescence Assay Kit was used to detect the activation of caspase-3/7. (D) MDA-MB-231, SUM159, and 4T1 cell lines were treated with DMSO or LLL12B for 8-12 hours, and flow cytometry was performed to analyze annexin V and PI staining. The quantification of apoptotic cells was shown in the right panel. ** P<0.01, *** P<0.001 and ****P<0.0001.
SiRNA and transfection. STAT3 siRNA and Negative Control siRNA (Cell Signaling Technology, Danvers, MA, USA) were used to knock down STAT3 in MDA-MB-231, SUM159, and 4T1 cell lines. Cells were transfected with STAT3 siRNA or Negative Control siRNA using Lipofectamine RNAiMAX (Invitrogen, Carlsbad, CA, USA) according to the manufacturer's instructions. After 72 hours, cell viability was examined by MTT cell viability assay, and the transfection efficiency was examined by western blot.
Western blot. Cells were collected and total protein was extracted using cell lysis buffer (Cell Signaling Technology, Danvers, MA, USA). Protein concentration was determined using the Pierce BCA Protein Assay Kit (Thermo Fisher Scientific, Waltham, MA, USA) according to the manufacturer's instructions. Equal amounts of protein were separated by 10% SDS-PAGE gels and transferred to PVDF membranes. Membranes were blocked in 5% non-fat milk at room temperature and probed with specific antibodies P-STAT3 (Y705), STAT3, Cyclin D1, Cleaved Caspase-3, P-STAT1 (Y701), STAT1, P-ERK, ERK or GAPDH (1:1000, Cell Signaling Technology, Danvers, MA, USA) at 4° C. overnight. The blots were visualized using SuperSignal™ West Femto Maximum Sensitivity Substrate (Thermo Fisher Scientific, Waltham, MA, USA) and an Amersham Imager 680 (GE Healthcare Life Sciences, Marlborough, MA, USA) after incubating with horseradish peroxidase (HRP)-conjugated anti-rabbit secondary antibody (1:5000, Cell Signaling Technology, Danvers, MA, USA).

SMILES: COc1ccc(S(=O)(=O)Nc2cc(-c3c(O)ccc4ccccc34)c(O)c3ccccc23)cc1 [C188-9, reference compound]
- concentration that inhibited P-STAT3 and Cyclin D1 in Western blot: 25 µM and 50 µM
